Laboratory results from patent publication US20230035592A1, “DIRECT AMPK ACTIVATOR COMPOUNDS COMBINED WITH INDIRECT AMPK ACTIVATOR COMPOUNDS, COMPOSITIONS, METHODS AND USES THEREOF” (SOCIETE DES PRODUITS NESTLE S.A., priority 2019, published 2023).

Columns and labels:
AMPK β1 WT = assay: pACC HTRF assay in AMPKβ1/β2 double knockout U-2 OS cells stably expressing β1 WT; assay type: cell-based, human
Method: (§1) The β1 WT or β1 S108A mutant were stably expressed in AMPKβ1β2 double knockout cells and were treated with varying concentrations of compound 1 for 30 mins at 37 C in the presence or absence of 11 μM of compound 2. Phosphorylation of ACC was assessed using the HTRF Cisbio (pACC kit).
(§2) AMPKβ1/β2 double knockout U-2 OS Flp-In™ T-Rex™ cell lines were generated by Horizon Discovery (Cambridge, UK). Cells were genotyped and analysed by Western blotting to confirm that there was a complete knockout of AMPKβ1/β2. We took these AMPKβ1/β2 double knockout cells, and re-introduced the expression of human β1 wild-type (WT) or a β1 Serine 108 to alanine mutation (S108A). This was achieved using the Flp-In™ system (Invitrogen) present in this cell line and stable cells expressing β1 WT or a β1 S108A mutant were generated according to the manufacturers' protocols. Re-expression of the β1 subunit was confirmed by Western blot analysis.
(§3) Cells stably expressing β1 WT or a β1 S108A mutant were treated with varying concentrations of Compound 1 in the presence or absence of a fixed concentration (11 μM) of compound 2. Cells lysates were subjected to the pACC HTRF (Cisbio) assay to determine the level of phosphorylation of the AMPK substrate, ACC, in cell lysates, as in example 1.

AMPK = assay: pACC HTRF (Cisbio) assay, phosphorylation of ACC in U-2 OS Flp-In T-REx cells; assay type: cell-based; conditions: for phosphorylation of the AMPK substrate ACC (ratio 665/620 nm): varying concentrations, 30 mins at 37 C
Method: U-2 OS cells were treated with varying concentrations of compound 1 for 30 mins at 37 C. Phosphorylation of ACC was assessed using the HTRF Cisbio (pACC kit).
U-2 OS cells were treated with varying concentrations of compound 1 for 30 mins at 37 C in the presence or absence of 11 μM of compound 2. Phosphorylation of ACC was assessed using the HTRF Cisbio (pACC kit).
First, we monitored the activation of AMPK within cells using the indirect activator, compound 1. U-2 OS Flp-In T-REx cells were seeded at 50 K in a 96-well plate and left overnight at 37 C in DMEM GlutaMAX (Thermo Fisher Scientific) supplemented with 10% (vol/vol) FBS and 100 U/ml penicillin G, and 100 μg/ml streptomycin. Cells were treated for 30 mins with varying concentrations of Compound 1 in media lacking FBS and then cells were lysed in 50 μl of Cisbio lysis buffer #1 supplemented with blocking solution as per the manufacturer's protocol (Cisbio). Cells were lysed for 30 mins at room temperature before 16 μl of lysate was incubated with 4 μl of the HTRF antibodies (1:40 dilution of the acceptor and donor (p)ACC antibodies, as per the manufacturers protocol). Lysates were incubated overnight with the antibodies before the 665 nm/620 nm ratio was determined using a MolecularDevices i3 plate reader (with a HTRF cartridge add-on).
To investigate whether treatment of compound 1 with our new identified direct benzocoumarin AMPK activator, compound 2, could improve the activation of AMPK, cells were treated for 30 mins with varying concentrations of compound 1 in the presence or absence of 11 μM compound 2. Cells were cultured and analysed according to example 1.

[1] = system: AMPK complexes containing the β2 isoform subunit; assay: pACC HTRF assay in AMPKβ1/β2 double knockout U-2 OS cells stably expressing β2 WT isoform; assay type: cell-based, human; conditions: fixed 11 μM compound 2 with varying concentrations of compound 1
Method: U-2 OS cells AMPKβ1β2 double knockout cells stably expressing AMPK β2 were treated with varying concentrations of compound 1 for 30 mins at 37 C in the presence or absence of 11 μM of compound 2. Phosphorylation of ACC was assessed using the HTRF Cisbio (pACC kit).
We took AMPKβ1/β2 double knockout cells, and re-introduced the expression of the human β2 WT isoform. […] Cells stably expressing β2 WT were treated with varying concentrations of Compound 1 in the absence or presence of a fixed concentration (11 μM) of compound 2. Cell lysates were subjected to the pACC HTRF (Cisbio) assay to determine the level of phosphorylation of the AMPK substrate, ACC, in cell lysates, as in Example 1. […] Direct activation AMPK by binding to the ADaM site was impaired or abolished in β2-containing complexes in vitro and in cells. The inability of compound 2 to improve the activation of AMPK by compound 1, was consistent with the knowledge we have generated showing the compound 2 binds to the ADaM-site of AMPK. […] Low doses of compound 1 in combination with compound 2 could activate AMPK.

[2] = system: ADaM-binding site AMPK mutant (β1 S108A); assay: pACC HTRF assay in AMPKβ1/β2 double knockout U-2 OS cells stably expressing β1 S108A mutant; assay type: cell-based, human; conditions: fixed 11 μM compound 2 with varying concentrations of compound 1
Method: as §1, §2, §3

Compound | pACC (fold increase in activation) (AMPK β1 WT; cells stably expressing β1 WT, varying concentrations, 30 mins at 37 C) | phosphorylation of the AMPK substrate ACC (ratio 665/620 nm) (AMPK) | phosphorylation of the AMPK substrate ACC (ratio 665/620 nm) (AMPK; listed as compound 1) | effect on the dose-response curve of compound 1 (pACC) [1] | effect on the dose-response curve of compound 1 (pACC) [2] | effect on the dose-response curve of compound 1 (pACC) (AMPK β1 WT; β1 WT cells, fixed 11 μM compound 2 with varying concentrations of compound 1) | effect on the dose-response curve of compound 1 (pACC) (AMPK; fixed 11 μM compound 2 with varying concentrations of compound 1, 30 mins)
O=c1oc2cc(O)ccc2c2ccccc12 [Compound 1, 3-hydroxy-6H-benzo[c]chromen-6-one] | able to dose-dependently increase pACC | increased the phosphorylation of the AMPK substrate, ACC, in a dose-dependent manner | increases the phosphorylation of the AMPK substrate, ACC, in a dose-dependent manner | – | – | – | –
COc1cc(O)c2c(c1)c(=O)oc1cc(O)ccc12 [Compound 2, 3,10-Dihydroxy-8-methoxy-6H-benzo[c]chromen-6-one] | – | – | – | did not improve the dose-response curve | not able to cause a left-shift and improvement | capable of causing a left-shift and improvement | left-shift in the dose-response curve
